Values joined by “and” are separate entries in the source; they are usually repeats but may differ in a detail not shown here. Equal values may be shown once. Inconclusive results and toxic doses are left out.
System: L1210 leukemia ip in BDF1 mice, survival T/C
Test: NCI In Vivo Anticancer Drug Screen. Data for tumor model L1210 Leukemia (intraperitoneal) in B6D2F1 (BDF1) mice
Conditions: endpoint: mean survival time, higher = longer survival
In short: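 Antitumor effect is assessed in tumor-bearing animals. Survival in the compound arm is compared with a vehicle-dosed control arm and expressed as their quotient.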

[1] = dose: 100.0 mg/kg/injection, schedule: Q01DX001 (ip), vehicle: carboxymethylcellulose (CMC)
[2] = dose: 100.0 mg/kg/injection, schedule: Q01DX001 (ip), vehicle: saline
[3] = dose: 400.0 mg/kg/injection, schedule: Q01DX001 (ip), vehicle: saline
[4] = dose: 400.0 mg/kg/injection, schedule: Q04DX003 (ip), vehicle: saline with Tween-80
[5] = dose: 100.0 mg/kg/injection, schedule: Q04DX002 (ip), vehicle: Klucel (hydroxypropylcellulose) (HPC)
[6] = dose: 200.0 mg/kg/injection, schedule: Q04DX002 (ip), vehicle: Klucel (hydroxypropylcellulose) (HPC)
[7] = dose: 100.0 mg/kg/injection, schedule: Q01DX009 (ip), vehicle: saline with Tween-80
[8] = dose: 200.0 mg/kg/injection, schedule: Q01DX009 (ip), vehicle: saline with Tween-80
[9] = dose: 400.0 mg/kg/injection, schedule: Q01DX009 (ip), vehicle: saline with Tween-80
[10] = dose: 50.0 mg/kg/injection, schedule: Q01DX001 (ip), vehicle: saline
[11] = dose: 200.0 mg/kg/injection, schedule: Q01DX001 (ip), vehicle: saline
[12] = dose: 100.0 mg/kg/injection, schedule: Q04DX003 (ip), vehicle: saline with Tween-80
[13] = dose: 200.0 mg/kg/injection, schedule: Q04DX003 (ip), vehicle: saline with Tween-80
[14] = dose: 50.0 mg/kg/injection, schedule: Q01DX009 (ip), vehicle: saline with Tween-80
[15] = dose: 100.0 mg/kg/injection, schedule: Q01DX001 (ip), vehicle: saline with Tween-80
[16] = dose: 200.0 mg/kg/injection, schedule: Q01DX001 (ip), vehicle: saline with Tween-80
[17] = dose: 400.0 mg/kg/injection, schedule: Q01DX001 (ip), vehicle: saline with Tween-80
[18] = dose: 100.0 mg/kg/injection, schedule: Q04DX003 (ip), vehicle: Klucel (hydroxypropylcellulose) (HPC)
[19] = dose: 200.0 mg/kg/injection, schedule: Q04DX003 (ip), vehicle: Klucel (hydroxypropylcellulose) (HPC)
[20] = dose: 400.0 mg/kg/injection, schedule: Q04DX003 (ip), vehicle: Klucel (hydroxypropylcellulose) (HPC)
[21] = dose: 100.0 mg/kg/injection, schedule: Q01DX009 (ip), vehicle: Klucel (hydroxypropylcellulose) (HPC)
[22] = dose: 200.0 mg/kg/injection, schedule: Q01DX009 (ip), vehicle: Klucel (hydroxypropylcellulose) (HPC)
[23] = dose: 400.0 mg/kg/injection, schedule: Q01DX009 (ip), vehicle: Klucel (hydroxypropylcellulose) (HPC)

SMILES: Nc1cc(Cl)ccc1Nc1ccccc1
- T/C (dose: 50.0 mg/kg/injection, schedule: Q01DX001 (ip), vehicle: carboxymethylcellulose (CMC)): 101 % of control
- T/C [1]: 109 % of control
- T/C (dose: 200.0 mg/kg/injection, schedule: Q01DX001 (ip), vehicle: carboxymethylcellulose (CMC)): 101 % of control
- T/C (dose: 400.0 mg/kg/injection, schedule: Q01DX001 (ip), vehicle: carboxymethylcellulose (CMC)): 101 % of control

SMILES: CC(C)CNCc1cc([N+](=O)[O-])ccc1O
- T/C (dose: 75.0 mg/kg/injection, schedule: Q01DX001 (ip), vehicle: saline): 100 % of control
- T/C (dose: 150.0 mg/kg/injection, schedule: Q01DX001 (ip), vehicle: saline): 97 % of control
- T/C (dose: 300.0 mg/kg/injection, schedule: Q01DX001 (ip), vehicle: saline): 94 % of control

SMILES: Nc1ncnc2c1cnn2C1OC(CO)C(O)C1O (stereo not given)
- T/C (dose: 4.1 mg/kg/injection, schedule: Q01DX009 (ip), vehicle: carboxymethylcellulose (CMC)): 97 % of control
- T/C (dose: 6.2 mg/kg/injection, schedule: Q01DX009 (ip), vehicle: carboxymethylcellulose (CMC)): 111 % of control
- T/C (dose: 9.3 mg/kg/injection, schedule: Q01DX009 (ip), vehicle: carboxymethylcellulose (CMC)): 124 % of control
- T/C (dose: 67.5 mg/kg/injection, schedule: Q01DX015 (ip), vehicle: carboxymethylcellulose (CMC)): 122 % of control
- T/C [1]: 111 % of control

SMILES: CCCCCCCCCCCCCCCOc1cc(C=O)ccc1OC
- T/C (dose: 100.0 mg/kg/injection, schedule: Q01DX001 (ip), vehicle: Klucel (hydroxypropylcellulose) (HPC)): 87 % of control
- T/C (dose: 200.0 mg/kg/injection, schedule: Q01DX001 (ip), vehicle: Klucel (hydroxypropylcellulose) (HPC)): 87 % of control

SMILES: CC([NH-])=O.CC([NH-])=O.[Pt+2]
- T/C (dose: 100.0 mg/kg/injection, schedule: Q01DX009 (ip), vehicle: water): 105 % of control
- T/C (dose: 100.0 mg/kg/injection, schedule: Q04DX003 (ip), vehicle: water): 101 % of control
- T/C (dose: 200.0 mg/kg/injection, schedule: Q01DX009 (ip), vehicle: water): 95 % of control
- T/C (dose: 200.0 mg/kg/injection, schedule: Q04DX003 (ip), vehicle: water): 103 % of control

SMILES: NC(=O)c1c(Br)n(C2OC(CO)C(O)C2O)c2ncnc(N)c12 (stereo not given)
- T/C (dose: 50.0 mg/kg/injection, schedule: Q04DX003 (ip), vehicle: saline with Tween-80): 102 % of control
- T/C [2]: 121 % of control
- T/C (dose: 178.0 mg/kg/injection, schedule: Q01DX001 (ip), vehicle: saline): 111 % of control
- T/C (dose: 267.0 mg/kg/injection, schedule: Q01DX001 (ip), vehicle: saline): 109 % of control
- T/C [3]: 120 % of control
- T/C [4]: 150 % of control

SMILES: CCOc1ccc(NC(=O)COc2ccc(Cl)cc2Cl)cc1
- T/C [5]: 89 % of control
- T/C [6]: 101 % of control
- T/C (dose: 400.0 mg/kg/injection, schedule: Q04DX002 (ip), vehicle: Klucel (hydroxypropylcellulose) (HPC)): 92 % of control

SMILES: COc1ccc(C)cc1NC(=O)SCc1ccccc1
- T/C [7]: 100 % of control
- T/C [8]: 101 % of control
- T/C [9]: 94 % of control

SMILES: Cn1ccc(=O)nc1
- T/C (dose: 100.0 mg/kg/injection, schedule: Q01DX009 (ip), vehicle: saline): 94 % of control
- T/C (dose: 200.0 mg/kg/injection, schedule: Q01DX009 (ip), vehicle: saline): 103 % of control
- T/C (dose: 400.0 mg/kg/injection, schedule: Q01DX009 (ip), vehicle: saline): 100 % of control

SMILES: CCCCCCCCCCCC(c1ccccc1)N(C)C (stereo not given)
- T/C [10]: 98 % of control
- T/C [2]: 93 % of control
- T/C [11]: 93 % of control
- T/C [3]: 93 % of control

SMILES: C/C=C/Cn1cnc2c1c(=O)n(C)c(=O)n2C
- T/C [12]: 95 % of control
- T/C [13]: 95 % of control

SMILES: Cc1cc(C)c(NC(=O)c2cc(C(=O)O)c(C(=O)Nc3c(C)cc(C)cc3C)cc2C(=O)O)c(C)c1
- T/C [14]: 119 % of control and 91 % of control
- T/C [15]: 104 % of control
- T/C (dose: 100.0 mg/kg/injection, schedule: Q04DX002 (ip), vehicle: saline with Tween-80): 104 % of control and 110 % of control
- T/C [12]: 107 % of control
- T/C [16]: 98 % of control
- T/C (dose: 200.0 mg/kg/injection, schedule: Q04DX002 (ip), vehicle: saline with Tween-80): 94 % of control and 113 % of control
- T/C [13]: 100 % of control
- T/C [17]: 102 % of control
- T/C [9]: 87 % of control and 89 % of control
- T/C (dose: 400.0 mg/kg/injection, schedule: Q04DX002 (ip), vehicle: saline with Tween-80): 100 % of control
- T/C [4]: 96 % of control

SMILES: COc1cccc(NC(=O)NCCCl)c1
- T/C (dose: 12.5 mg/kg/injection, schedule: Q01DX009 (ip), vehicle: saline with Tween-80): 96 % of control
- T/C (dose: 25.0 mg/kg/injection, schedule: Q01DX009 (ip), vehicle: saline with Tween-80): 86 % of control
- T/C [14]: 90 % of control

SMILES: CO/C(=N\S(=O)(=O)c1ccccc1)C1CC=CCC1/C(=N\S(=O)(=O)c1ccccc1)OC (stereo not given)
- T/C [18]: 100 % of control
- T/C [19]: 94 % of control
- T/C [20]: 100 % of control

SMILES: CC(=O)n1c(N)nc2ccccc21
- T/C [21]: 103 % of control
- T/C [22]: 102 % of control

SMILES: O=C(CCCC(=O)NNC(=O)Nc1cccc2ccccc12)NNC(=O)Nc1cccc2ccccc12
- T/C [10]: 98 % of control
- T/C [2]: 96 % of control
- T/C [11]: 87 % of control

SMILES: Cc1cc2nc(C)c(=O)[nH]c2cc1C
- T/C [21]: 95 % of control
- T/C [18]: 96 % of control
- T/C [22]: 98 % of control
- T/C [19]: 92 % of control
- T/C [23]: 91 % of control
- T/C [20]: 92 % of control

SMILES: COc1cccc(/C=N\N=C\c2cccc(OC)c2O)c1O
- T/C [15]: 91 % of control
- T/C [16]: 103 % of control and 105 % of control
- T/C [17]: 94 % of control and 95 % of control

SMILES: O=C(NCCCCCCCNC(=O)Nc1ccc(C2=NCCCN2)cc1)Nc1ccc(C2=NCCCN2)cc1
- T/C (dose: 3.75 mg/kg/injection, schedule: Q01DX Z (ip), vehicle: carboxymethylcellulose (CMC)): 98 % of control
- T/C (dose: 7.5 mg/kg/injection, schedule: Q01DX Z (ip), vehicle: carboxymethylcellulose (CMC)): 102 % of control
- T/C (dose: 15.0 mg/kg/injection, schedule: Q01DX Z (ip), vehicle: carboxymethylcellulose (CMC)): 120 % of control
- T/C (dose: 30.0 mg/kg/injection, schedule: Q01DX Z (ip), vehicle: carboxymethylcellulose (CMC)): 89 % of control

SMILES: CCOC(=O)c1cccs1
- T/C [21]: 99 % of control
- T/C [18]: 103 % of control
- T/C [22]: 95 % of control
- T/C [19]: 100 % of control
- T/C [23]: 97 % of control
- T/C [20]: 105 % of control

SMILES: O=S(=O)(c1ccccc1)C1CC1(c1ccccc1)c1ccccc1 (stereo not given)
- T/C [2]: 92 % of control
- T/C [11]: 93 % of control
- T/C [3]: 90 % of control

SMILES: CN(C)c1ccc(CNc2cccc([N+](=O)[O-])c2)cc1
- T/C [15]: 96 % of control
- T/C [16]: 90 % of control
- T/C [17]: 95 % of control

SMILES: O=C1OC(c2ccc(Cl)cc2)=N/C1=C\c1ccc(Cl)cc1
- T/C [7]: 91 % of control
- T/C [8]: 94 % of control
- T/C [9]: 91 % of control

SMILES: Nc1cc2c3c(cccc3c1Br)C(=O)OC2=O
- T/C [5]: 97 % of control
- T/C [6]: 108 % of control

SMILES: CCSc1nc(N)c(C#N)cc1C#N
- T/C [21]: 105 % of control
- T/C [18]: 88 % of control
- T/C [22]: 95 % of control
- T/C [19]: 95 % of control

Source: PubChem BioAssay AID248 (DTP/NCI, 2004)
